Molecules are shown by their SMILES.

Assay [1] relates to human TE 354.T epithelial cell lines derived from the human basal-cell carcinoma. Put plainly: Proliferation rate (average cell-doubling rate) of human basal-cell carcinoma cell line in culture. It is filed as cell-based. An excerpt:
(§1) The influence of D2O and H2O on the proliferation rate of carcinoma cells and normal cells was investigated on cell cultures. For this purpose, human TE 354.T epithelial cell lines derived from the human basal-cell carcinoma (American Type Culture Collection (ATCC), Rockville, USA) were used. Normal human epithelial cell lines from the skin of the same individual (TE 353.sk from ATCC) were used as control. The cells were transferred into 96-well cell culture plates (10^4 cells per well) and allowed to grow to subconfluence. The medium used for this purpose was Dulbecco's modified Eagles medium (DMEM) to which 10% heat-deactivated fetal calf serum (LGC Promochem, Wesel, Germany) was added. The medium was changed, for the first time 2 days after introduction of the cells and then every 48 hours. At the subconfluent stage of the cell culture of the two cell lines, 30% D2O, based on the complete medium, was added to the medium. […] From these values, the average cell-doubling rate n was determined from the gradient of a graphical plot of log {cell count} vs. time in accordance with the equation n=3.32 (log Nt−log N0). Here, Nt is the cell count measured after time t, and N0 is the cell count determined at the time when D2O or H2O was added (zero point measurement). The average cell-doubling rate was determined by averaging the results over in each case 6 wells per time point.

Assay [2] deals with normal human epithelial cell lines from the skin (TE 353.sk). The assay is described as follows: Proliferation rate (average cell-doubling rate) of normal human skin epithelial cell line in culture. The conditions noted are these: 30% D2O based on the complete medium, counted from 48 h then every 24 h for a week, 6 wells.
Text: as §1

For `[2H]O[2H]` [D2O, deuterium dioxide], in assay [1] (30% D2O added to medium, versus H2O), the “reduction in <n> for the carcinoma cells compared with normal cells” value is reported as “disproportionately large reduction”. Moreover, the “average cell-doubling rate <n> D2O, carcinoma cells” value in assay [1] (30% D2O based on the complete medium, TE 354.T, counted from 48 h then every 24 h for a week, 6 wells) is recorded as 0.23 ± 0.02. In addition, the “average cell-doubling rate <n> D2O, normal cells” value in assay [2] stood at 0.41 ± 0.04.

The values above are taken from patent publication US20100329994A1, “Use of Deuterium Dioxide for Treating Hyperproliferative Skin Diseases” (priority 2006, published 2010).
